In general, IC50 refers to the concentration that inhibits the measured activity by half.

The target of the first experiment is T1, CDK5-p25 kinase (Homo sapiens, UniProt Q00535).
T1 construct: purchased Invitrogen PV4677
T1 sequence (Q00535 whole entry): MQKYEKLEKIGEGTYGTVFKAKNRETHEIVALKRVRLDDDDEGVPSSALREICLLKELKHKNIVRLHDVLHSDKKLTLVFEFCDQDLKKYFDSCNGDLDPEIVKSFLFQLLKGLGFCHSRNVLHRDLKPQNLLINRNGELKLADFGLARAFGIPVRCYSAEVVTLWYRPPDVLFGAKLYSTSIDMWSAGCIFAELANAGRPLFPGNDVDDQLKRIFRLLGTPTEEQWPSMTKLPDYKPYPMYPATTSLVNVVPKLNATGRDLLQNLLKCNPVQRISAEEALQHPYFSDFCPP
T1 sequence (Q15078 99-307 partner limits assumed): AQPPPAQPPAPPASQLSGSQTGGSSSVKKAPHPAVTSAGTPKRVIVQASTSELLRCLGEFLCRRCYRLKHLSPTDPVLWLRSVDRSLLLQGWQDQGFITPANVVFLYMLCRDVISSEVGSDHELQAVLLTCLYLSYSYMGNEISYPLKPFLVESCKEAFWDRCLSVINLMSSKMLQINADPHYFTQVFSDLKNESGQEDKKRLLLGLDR
Nature of the experiment: CDK5-p25 kinase enzymatic assay. Type of experiment: biochemical. To be noted: 50 nM-99 nM; 5 uM ATP, 0.3 nM CDK5-p25; read-out: IC50 potency, CDK5-p25 kinase enzymatic assay, 50 nM-99 nM. As to the method: CDK5-p25 kinase (Invitrogen PV4677) enzymatic activity was measured using electrophoretic separation and fluorescent detection to monitor phosphorylation of a fluorescently labeled histone H1-derived peptide substrate, FL29 (5-FAM-GGGPATPKKAKKL-CONH2, Caliper #760429)
First, 0.25 uL of serially diluted compound in DMSO at 100× concentration was transferred into each well of a 384-well polystyrene assay plate. To this was added 15 uL of a 1.67× enzyme solution (500 pM enzyme, 1 mM DTT (Sigma D9779), 1× reconstitution buffer with protease inhibitor (Caliper #700329 proprietary formulation)), followed by centrifugation for 1 min at 1000 rpm, and incubation for 5-15 min at room temperature to allow binding of compound to enzyme. To initiate the reaction, 10 uL of substrate/ATP mix (245 mM Hepes pH 7.5, 0.003% Brij 35, 0.004% Tween, 12.75 uM ATP, 3.75 uM FL29 peptide) were added to each well, followed by centrifugation at 1000 rpm for 1 min. The reaction was then incubated at room temperature for 30 min. Final assay conditions were: 0.3 nM CDK5-p25, 1.5 uM peptide, 5 uM ATP, 0.6 mM DTT, 1% DMSO, 98 mM HEPES pH 7.5.
After incubation, reactions were quenched by the addition of 45 uL Caliper termination solution (Caliper proprietary formula), followed by centrifugation at 1000 rpm for 1 min. Extent of reaction (percentage conversion of substrate to phosphorylated product) was then measured using the Caliper EZ II reader. Dose-response curves were created by plotting the inhibition of enzyme activity (normalized relative to vehicle treated and no ATP control reactions) as a function of the log of compound concentration. The curve was analyzed using a four parameter logistical fit to calculate IC50 values.
Take `O=C(Nc1ncn2c(C(F)(F)F)csc12)C(O)c1ccc2ccccc2c1` (single isomer, unassigned) [Example 44, (R or S)-2-hydroxy-2-(2-naphthyl)-N-[3-(trifluoromethyl)imidazo[5,1-b][1,3]thiazol-7-yl]acetamide]: the IC50 lay within 0.05 to 0.099 µM.

In the case of `O=C(Nc1ncn2c(C(F)(F)F)csc12)C(Cl)c1ccc2ccccc2c1` (single isomer, unassigned) [Example 45, (R or S)-2-chloro-2-(2-naphthyl)-N-[3-(trifluoromethyl)imidazo[5,1-b][1,3]thiazol-7-yl]acetamide], the IC50 is 0.05 to 0.099 µM.

Consider `O=C(Cc1ccc(-c2ccncc2)cc1)Nc1ncn2c(C(F)(F)F)csc12` [Example 12, 2-(4-pyridin-4-ylphenyl)-N-[3-(trifluoromethyl)imidazo[5,1-b][1,3]thiazol-7-yl]acetamide], for which the 50% inhibitory concentration (IC50) is 0.05 to 0.099 µM.

With `O=C(Cc1ccc(N2CCCC2=O)cc1)Nc1ncn2c(C(F)(F)F)csc12` [Example 17, 2-[4-(2-oxopyrrolidin-1-yl)phenyl]-N-[3-(trifluoromethyl)imidazo[5,1-b][1,3]thiazol-7-yl]acetamide], the concentration for half-maximal inhibition (IC50) lay within 0.05 to 0.099 µM.

Consider `Cn1cc(-c2ccc(CC(=O)Nc3ncn4c(C(F)(F)F)csc34)cc2)cn1` [Example 20, 2-[4-(1-methyl-1H-pyrazol-4-yl)phenyl]-N-[3-(trifluoromethyl)imidazo[5,1-b][1,3]thiazol-7-yl]acetamide], for which the IC50 was in the range of 0.05 to 0.099 µM.

For `O=C(Cc1ccc(-n2ccnc2)cc1)Nc1ncn2c(C(F)(F)F)csc12` [Example 23, 2-[4-(1H-imidazol-1-yl)phenyl]-N-[3-(trifluoromethyl)imidazo[5,1-b][1,3]thiazol-7-yl]acetamide], the IC50 lay in the range of 0.05 to 0.099 µM.

Consider `O=C(Cc1ccc(-c2ccnnc2)cc1)Nc1ncn2c(C(F)(F)F)csc12` [Example 26, 2-(4-pyridazin-4-ylphenyl)-N-[3-(trifluoromethyl)imidazo[5,1-b][1,3]thiazol-7-yl]acetamide], for which the IC50 was 0.05 to 0.099 µM.

As for `NCc1ccc(CC(=O)Nc2ncn3c(C(F)(F)F)csc23)cc1` [Example 27, 2-[4-(aminomethyl)phenyl]-N-[3-(trifluoromethyl)imidazo[5,1-b][1,3]thiazol-7-yl]acetamide], the half-maximal inhibitory concentration (IC50) is 0.05 to 0.099 µM.

As for `O=C(Cc1ccc2c(c1)OCO2)Nc1ncn2c(C(F)(F)F)csc12` [Example 30, 2-(1,3-benzodioxol-5-yl)-N-[3-(trifluoromethyl)imidazo[5,1-b][1,3]thiazol-7-yl]acetamide], the half-maximal inhibitory concentration (IC50) fell in the range of 0.05 to 0.099 µM.

Still in this experiment, the particulars now being: 500 nM-3 μM; 5 uM ATP, 0.3 nM CDK5-p25; read-out: IC50 potency, CDK5-p25 kinase enzymatic assay, 500 nM-3 μM.
For the compound `O=C(Cc1cc2ccccc2cn1)Nc1ncn2c(C(F)(F)F)csc12` [Example 8, 2-isoquinolin-3-yl-N-[3-(trifluoromethyl)imidazo[5,1-b][1,3]thiazol-7-yl]acetamide], the IC50 fell in the range of 0.5 to 3 µM.

For the compound `NC(C(=O)Nc1ncn2c(C(F)(F)F)csc12)c1ccc2ccccc2c1` (centres unmarked) [Example 15, 2-amino-2-(2-naphthyl)-N-[3-(trifluoromethyl)imidazo[5,1-b][1,3]thiazol-7-yl]acetamide], the IC50 lay in the range of 0.5 to 3 µM.

Regarding `COc1ccc2cc(C(C)C(=O)Nc3ncn4c(C(F)(F)F)csc34)ccc2c1` (centres unmarked) [Example 18, 2-(6-methoxy-2-naphthyl)-N-[3-(trifluoromethyl)imidazo[5,1-b][1,3]thiazol-7-yl]propanamide], the IC50 was 0.5 to 3 µM.

Regarding `O=C(Cc1cn2cccnc2n1)Nc1ncn2c(C(F)(F)F)csc12` [Example 28, 2-imidazo[1,2-a]pyrimidin-2-yl-N-[3-(trifluoromethyl)imidazo[5,1-b][1,3]thiazol-7-yl]acetamide], the IC50 was in the range of 0.5 to 3 µM.

Staying with this experiment, now noted: 5 uM ATP, 0.3 nM CDK5-p25; read-out: IC50 potency, CDK5-p25 kinase enzymatic assay, 100 nM-499 nM.
On to `COc1cccc(-c2ccc(CC(=O)Nc3ncn4c(C(F)(F)F)csc34)cc2)c1` [Example 10, 2-(3′-methoxybiphenyl-4-yl)-N-[3-(trifluoromethyl)imidazo[5,1-b][1,3]thiazol-7-yl]acetamide], for which the concentration for half-maximal inhibition (IC50) lay in the range of 0.1 to 0.499 µM.

As to `O=C(CC1CCOCC1)Nc1ncn2c(C(F)(F)F)csc12` [Example 21, 2-(tetrahydro-2H-pyran-4-yl)-N-[3-(trifluoromethyl)imidazo[5,1-b][1,3]thiazol-7-yl]acetamide], the half-maximal inhibitory concentration (IC50) was in the range of 0.1 to 0.499 µM.

Consider `Cc1cc(CC(=O)Nc2ncn3c(C(F)(F)F)csc23)on1` [Example 22, 2-(3-methylisoxazol-5-yl)-N-[3-(trifluoromethyl)imidazo[5,1-b][1,3]thiazol-7-yl]acetamide], for which the IC50 was 0.1 to 0.499 µM.

`N[C@H]1CC[C@H](CC(=O)Nc2ncn3c(C(F)(F)F)csc23)CC1` [Example 25, 2-(trans-4-amino-cyclohexyl)-N-[3-(trifluoromethyl)imidazo[5,1-b][1,3]thiazol-7-yl]acetamide]: the concentration for half-maximal inhibition (IC50) lay within 0.1 to 0.499 µM.

`O=C(Cc1cn2ccccc2n1)Nc1ncn2c(C(F)(F)F)csc12` [Example 29, 2-imidazo[1,2-a]pyridin-2-yl-N-[3-(trifluoromethyl)imidazo[5,1-b][1,3]thiazol-7-yl]acetamide]: the IC50 was in the range of 0.1 to 0.499 µM.

The experiment is the same for the next values; noted with them: '<50 nM'; 5 uM ATP, 0.3 nM CDK5-p25; read-out: IC50 potency, CDK5-p25 kinase enzymatic assay, <50 nM.
For `O=C(Cc1ccc(N2CCOC2=O)cc1)Nc1ncn2c(C(F)(F)F)csc12` [Example 1, 2-[4-(2-Oxo-1,3-oxazolidin-3-yl)phenyl]-N-[3-(trifluoromethyl)imidazo[5,1-b][1,3]thiazol-7-yl]acetamide], the IC50 is less than 0.05 µM.

Turning to `O=C(Cc1ccc2ccccc2c1)Nc1ncn2c(C(F)(F)F)csc12` [Example 2, 2-(2-naphthyl)-N-[3-(trifluoromethyl)imidazo[5,1-b][1,3]thiazol-7-yl]acetamide], the half-inhibitory concentration (IC50) was less than 0.05 µM.

Consider `O=C(Cc1ccc2ncccc2c1)Nc1ncn2c(C(F)(F)F)csc12` [Example 3, 2-quinolin-6-yl-N-[3-(trifluoromethyl)imidazo[5,1-b][1,3]thiazol-7-yl]acetamide], for which the IC50 is less than 0.05 µM.

Turning to `O=C(Cc1ccc2ccncc2c1)Nc1ncn2c(C(F)(F)F)csc12` [Example 4, 2-isoquinolin-7-yl-N-[3-(trifluoromethyl)imidazo[5,1-b][1,3]thiazol-7-yl]acetamide], the concentration for half-maximal inhibition (IC50) is less than 0.05 µM.

In the case of `O=C(Cc1ccc2cnccc2c1)Nc1ncn2c(C(F)(F)F)csc12` [Example 5, 2-isoquinolin-6-yl-N-[3-(trifluoromethyl)imidazo[5,1-b][1,3]thiazol-7-yl]acetamide], the 50% inhibitory concentration (IC50) is less than 0.05 µM.

With `COc1ccc2cc(CC(=O)Nc3ncn4c(C(F)(F)F)csc34)ccc2c1` [Example 6, 2-(6-methoxy-2-naphthyl)-N-[3-(trifluoromethyl)imidazo[5,1-b][1,3]thiazol-7-yl]acetamide], the concentration for half-maximal inhibition (IC50) was less than 0.05 µM.

Regarding `O=C(Cc1ccc(Cl)nc1)Nc1ncn2c(C(F)(F)F)csc12` [Example 7, 2-(6-chloropyridin-3-yl)-N-[3-(trifluoromethyl)imidazo[5,1-b][1,3]thiazol-7-yl]acetamide], the concentration for half-maximal inhibition (IC50) was less than 0.05 µM.

`COc1ccc2ccc(CC(=O)Nc3ncn4c(C(F)(F)F)csc34)cc2c1` [Example 9, 2-(7-methoxy-2-naphthyl)-N-[3-(trifluoromethyl)imidazo[5,1-b][1,3]thiazol-7-yl]acetamide]: the IC50 is less than 0.05 µM.

For the compound `O=C(Cc1ccc(-c2cccnc2)cc1)Nc1ncn2c(C(F)(F)F)csc12` [Example 11, 2-(4-pyridin-3-ylphenyl)-N-[3-(trifluoromethyl)imidazo[5,1-b][1,3]thiazol-7-yl]acetamide], the IC50 was less than 0.05 µM.

As to `O=C(Cc1ccc2cccnc2c1)Nc1ncn2c(C(F)(F)F)csc12` [Example 13, 2-quinolin-7-yl-N-(3-(trifluoromethyl)imidazo[5,1-b][1,3]thiazol-7-yl]acetamide], the 50% inhibitory concentration (IC50) is less than 0.05 µM.

On to `COc1cccc2cc(CC(=O)Nc3ncn4c(C(F)(F)F)csc34)ccc12` [Example 14, 2-(5-methoxy-2-naphthyl)-N-[3-(trifluoromethyl)imidazo[5,1-b][1,3]thiazol-7-yl]acetamide], for which the IC50 is less than 0.05 µM.

As to `O=C(Cc1ccc(-c2cn[nH]c2)cc1)Nc1ncn2c(C(F)(F)F)csc12` [Example 16, 2-[4-(1H-pyrazol-4-yl)phenyl]-N-(3-(trifluoromethyl)imidazo[5,1-b][1,3]thiazol-7-yl]acetamide], the half-maximal inhibitory concentration (IC50) was less than 0.05 µM.

Turning to `O=C(Cc1ccc(-c2cc[nH]n2)cc1)Nc1ncn2c(C(F)(F)F)csc12` [Example 19, 2-[4-(1H-pyrazol-3-yl)phenyl]-N-[3-(trifluoromethyl)imidazo[5,1-b][1,3]thiazol-7-yl]acetamide], the concentration for half-maximal inhibition (IC50) was less than 0.05 µM.

Consider `O=C(Cc1cccc(-c2cn[nH]c2)c1)Nc1ncn2c(C(F)(F)F)csc12` [Example 24, 2-[3-(1H-pyrazol-4-yl)phenyl]-N-[3-(trifluoromethyl)imidazo[5,1-b][1,3]thiazol-7-yl]acetamide], for which the IC50 was less than 0.05 µM.
